Laboratory results as given in US7781591B2, “Substituted 3-cyanopyridines as protein kinase inhibitors” (Wyeth LLC, priority 2006, dated 2010).

target: T1, human PKCθ full length enzyme (Homo sapiens, UniProt Q04759); assay: PKCθ IMAP assay (fluorescence polarization); format: biochemical; conditions: not given
T1 construct: human PKCθ full length enzyme (Panvera Cat# P2996); purchased Panvera P2996
T1 sequence (Q04759 whole entry): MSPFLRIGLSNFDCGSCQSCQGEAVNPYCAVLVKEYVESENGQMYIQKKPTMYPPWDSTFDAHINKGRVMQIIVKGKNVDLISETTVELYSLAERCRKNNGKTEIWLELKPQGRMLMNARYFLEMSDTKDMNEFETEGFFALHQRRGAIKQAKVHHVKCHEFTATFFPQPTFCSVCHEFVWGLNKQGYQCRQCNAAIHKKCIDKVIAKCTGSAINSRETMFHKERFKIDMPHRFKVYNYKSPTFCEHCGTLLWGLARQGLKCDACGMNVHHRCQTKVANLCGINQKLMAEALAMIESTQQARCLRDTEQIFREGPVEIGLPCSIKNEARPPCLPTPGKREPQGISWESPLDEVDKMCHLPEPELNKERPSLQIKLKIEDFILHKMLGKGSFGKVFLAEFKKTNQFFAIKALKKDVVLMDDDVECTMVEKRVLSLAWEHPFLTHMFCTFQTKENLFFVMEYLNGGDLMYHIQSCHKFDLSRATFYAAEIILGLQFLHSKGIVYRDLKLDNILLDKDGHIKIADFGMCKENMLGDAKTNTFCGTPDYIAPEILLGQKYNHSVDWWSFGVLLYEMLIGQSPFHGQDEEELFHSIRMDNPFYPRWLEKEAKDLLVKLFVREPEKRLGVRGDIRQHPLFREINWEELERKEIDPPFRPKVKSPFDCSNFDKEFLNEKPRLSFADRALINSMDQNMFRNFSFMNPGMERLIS

Work on `Cc1c(Nc2c(C#N)cncc2-c2ccc(OCCNCCN(C)C)cc2)ccc2[nH]ccc12` [Compound 417, 5-[4-(2-{[2-(dimethylamino)ethyl]amino}ethoxy)phenyl]-4-[(4-methyl-1H-indol-5-yl)amino]nicotinonitrile] yielded an IC50 of 0.006 µM.

same assay, conditions: human PKCθ full length enzyme, IMAP; average value; read-out: IC50 PKCθ IMAP

First: Cc1cc2[nH]ccc2cc1Nc1c(C#N)cncc1-c1ccc(OCCN2CCC(O)CC2)cc1 [Compound 505, 5-{4-[2-(4-hydroxypiperidin-1-yl)ethoxy]phenyl}-4-[(6-methyl-1H-indol-5-yl)amino]nicotinonitrile]
Second: Cc1c(Nc2c(C#N)cncc2-c2ccc(OCCNC3CCN(C)CC3)cc2)ccc2[nH]ccc12 [Compound 420, 4-[(4-methyl-1H-indol-5-yl)amino]-5-(4-{2-[(1-methylpiperidin-4-yl)amino]ethoxy}phenyl)nicotinonitrile]
The IC50 of the first is 25-fold higher: 0.076 µM for the first, 0.003 µM for the second.

Going from `Cc1c(Nc2c(C#N)cncc2-c2cc3cc(CN4CCCCC4)ccc3s2)ccc2[nH]ccc12` [Compound 228, 4-[(4-methyl-1H-indol-5-yl)amino]-5-[5-(piperidin-1-ylmethyl)-1-benzothien-2-yl]nicotinonitrile] to `Cc1c(Nc2c(C#N)cncc2-c2cc3cc(CNCCN4CCCC4)ccc3o2)ccc2[nH]ccc12` [Compound 390, 4-[(4-methyl-1H-indol-5-yl)amino]-5-(5-{[(2-pyrrolidin-1-ylethyl)amino]methyl}-1-benzofuran-2-yl)nicotinonitrile], the IC50 falls from 0.002 µM to 0.001 µM (2-fold).

Compared with `COc1ccc(C=O)cc1-c1cncc(C#N)c1Nc1ccc2[nH]ccc2c1C` [Compound 551, 5-(5-formyl-2-methoxyphenyl)-4-[(4-methyl-1H-indol-5-yl)amino]nicotinonitrile], `Cc1c(Nc2c(C#N)cncc2-c2cc3cc(C=O)ccc3o2)ccc2[nH]ccc12` [Compound 465, 5-(5-formyl-1-benzofuran-2-yl)-4-[(4-methyl-1H-indol-5-yl)amino]nicotinonitrile] is 28-fold lower in IC50: 0.028 µM for the first, 0.001 µM for the second. The second is the more potent here.

`Cc1c(Nc2c(C#N)cncc2-c2cccc(N)c2)ccc2[nH]ccc12` [Compound 572, 5-(3-aminophenyl)-4-[(4-methyl-1H-indol-5-yl)amino]nicotinonitrile] and `Cc1c(Nc2c(C#N)cncc2-c2ccccc2N)ccc2[nH]ccc12` [Compound 573, 5-(2-aminophenyl)-4-[(4-methyl-1H-indol-5-yl)amino]nicotinonitrile] are within 1.5-fold of each other in IC50: 0.05 µM for the first, 0.057 µM for the second.

Compared with `COc1cc(-c2cncc(C#N)c2Nc2ccc3[nH]ccc3c2C)ccc1OCCN1CCCCC1` [Compound 376, 5-[3-methoxy-4-(2-piperidin-1-ylethoxy)phenyl]-4-[(4-methyl-1H-indol-5-yl)amino]nicotinonitrile], `COc1cc(-c2cncc(C#N)c2Nc2ccc3[nH]ccc3c2C)ccc1OCCCl` [Compound 372, 5-[4-(2-chloroethoxy)-3-methoxyphenyl]-4-[(4-methyl-1H-indol-5-yl)amino]nicotinonitrile] is 2.9-fold lower in IC50: 0.02 µM for the first, 0.007 µM for the second. The second is the more potent here.

`N#Cc1cncc(-c2ccsc2)c1Nc1ccc2[nH]ccc2c1` [Compound 258, 4-(1H-indol-5-ylamino)-5-(3-thienyl)nicotinonitrile] and `N#Cc1cncc(-c2ccccc2)c1Nc1ccc2[nH]ccc2c1` [Compound 257, 4-(1H-indol-5-ylamino)-5-phenylnicotinonitrile] are the same in IC50: 0.1 µM for the first, 0.1 µM for the second.

`COc1ccc(-c2c[n+]([O-])cc(C#N)c2Nc2ccc3[nH]ccc3c2)cc1OC` [Compound 523, 5-(3,4-dimethoxyphenyl)-4-(1H-indol-5-ylamino)nicotinonitrile 1-oxide] and `COc1ccc(-c2cncc(C#N)c2Nc2ccc3[nH]ccc3c2)cc1OCCN(C(C)C)C(C)C` [Compound 180, 5-{3-[2-(diisopropylamino)ethoxy]-4-methoxyphenyl}-4-(1H-indol-5-ylamino)nicotinonitrile] are within 1.5-fold of each other in IC50: 0.737 µM for the first, 0.69 µM for the second.

Going from `N#Cc1cncc(-c2cccc(CO)c2)c1Nc1cccc2[nH]ccc12` [Compound 270, 5-[3-(hydroxymethyl)phenyl]-4-(1H-indol-4-ylamino)nicotinonitrile] to `N#Cc1cncc(-c2cccc(C(=O)O)c2)c1Nc1cccc2[nH]ccc12` [Compound 327, 3-[5-cyano-4-(1H-indol-4-ylamino)pyridin-3-yl]benzoic acid], the IC50 rises from 0.02 µM to 0.12 µM (6-fold). The first is the more potent here.

Compared with `COCCOc1ccc(-c2cncc(C#N)c2Nc2ccc3[nH]ccc3c2C)cc1` [Compound 482, 5-[4-(2-methoxyethoxy)phenyl]-4-[(4-methyl-1H-indol-5-yl)amino]nicotinonitrile], `COCCOc1cccc(-c2cncc(C#N)c2Nc2ccc3[nH]ccc3c2C)c1` [Compound 483, 5-[3-(2-methoxyethoxy)phenyl]-4-[(4-methyl-1H-indol-5-yl)amino]nicotinonitrile] is 3.3-fold higher in IC50: 0.011 µM for the first, 0.036 µM for the second. The first is the more potent here.

`Cc1c(Nc2c(C#N)cncc2-c2ccc(N3CCOCC3)nc2)ccc2[nH]ccc12` [Compound 507, 4-[(4-methyl-1H-indol-5-yl)amino]-6′-morpholin-4-yl-3,3′-bipyridine-5-carbonitrile] and `CNC(=O)Nc1ccc(-c2cncc(C#N)c2Nc2ccc3[nH]ccc3c2C)cc1` [Compound 567, 1-(4-{5-cyano-4-[(4-methyl-1H-indol-5-yl)amino]pyridin-3-yl}phenyl)-3-methylurea] are within 1.5-fold of each other in IC50: 0.03 µM for the first, 0.021 µM for the second.

Compared with `COc1ccc(-c2cncc(C#N)c2Nc2ccc3[nH]ccc3c2)cc1-c1cccs1` [Compound 189, 4-(1H-indol-5-ylamino)-5-[4-methoxy-3-(2-thienyl)phenyl]nicotinonitrile], `COc1ccc(-c2cncc(C#N)c2Nc2ccc3[nH]ccc3c2)cc1OCCNCc1ccco1` [Compound 245, 5-(3-{2-[(2-furylmethyl)amino]ethoxy}-4-methoxyphenyl)-4-(1H-indol-5-ylamino)nicotinonitrile] is 9-fold higher in IC50: 0.03 µM for the first, 0.27 µM for the second.

Going from `COc1ccc(-c2cncc(C#N)c2Nc2ccc3[nH]ccc3c2)cc1OCCNCCc1ccccc1` [Compound 242, 4-(1H-indol-5-ylamino)-5-(4-methoxy-3-{2-[(2-phenylethyl)amino]ethoxy}phenyl)nicotinonitrile] to `COc1ccc(-c2cncc(C#N)c2Nc2ccc3[nH]ccc3c2)cc1OCCNCCc1cccnc1` [Compound 252, 4-(1H-indol-5-ylamino)-5-(4-methoxy-3-{2-[(2-pyridin-3-ylethyl)amino]ethoxy}phenyl)nicotinonitrile], the IC50 rises from 0.02 µM to 0.03 µM (1.5-fold). The first is the more potent here.

Compared with `Cc1noc(C)c1-c1cncc(C#N)c1Nc1ccc2[nH]ccc2c1` [Compound 269, 5-(3,5-dimethylisoxazol-4-yl)-4-(1H-indol-5-ylamino)nicotinonitrile], `N#Cc1cncc(-c2cccc(-c3ccc(N)cc3)c2)c1Nc1ccc2[nH]ccc2c1` [Compound 119, 5-(4′-aminobiphenyl-3-yl)-4-(1H-indol-5-ylamino)nicotinonitrile] is 36-fold lower in IC50: 10.9 µM for the first, 0.3 µM for the second.

`CN1CCN(Cc2ccc(-c3cccc(-c4cncc(C#N)c4Nc4ccc5[nH]ccc5c4)c3)s2)CC1` [Compound 184, 4-(1H-indol-5-ylamino)-5-(3-{5-[(4-methylpiperazin-1-yl)methyl]-2-thienyl}phenyl)nicotinonitrile] and `CNCCNC(=O)c1ccc(-c2cccc(-c3cncc(C#N)c3Nc3ccc4[nH]ccc4c3)c2)cc1` [Compound 211, 3′-[5-cyano-4-(1H-indol-5-ylamino)pyridin-3-yl]-N-[2-(methylamino)ethyl]biphenyl-4-carboxamide] are within 1.5-fold of each other in IC50: 0.26 µM for the first, 0.33 µM for the second.

Compared with `Cc1c(Nc2c(C#N)cncc2-c2cscn2)ccc2[nH]ccc12` [Compound 543, 4-[(4-methyl-1H-indol-5-yl)amino]-5-(1,3-thiazol-4-yl)nicotinonitrile], `Cc1c(Nc2c(C#N)cncc2-c2csc3ccccc23)ccc2[nH]ccc12` [Compound 585, 5-(1-benzothiophen-3-yl)-4-[(4-methyl-1H-indol-5-yl)amino]nicotinonitrile] is 11-fold higher in IC50: 0.008 µM for the first, 0.088 µM for the second. The first is the more potent here.

Going from `COc1ccc(-c2cncc(C#N)c2Nc2ccc3c(c2)OCO3)cc1OC` [Compound 111, 4-(1,3-benzodioxol-5-ylamino)-5-(3,4-dimethoxyphenyl)nicotinonitrile] to `CCc1c(Nc2c(C#N)cncc2-c2ccc(OC)c(OC)c2)ccc2[nH]ccc12` [Compound 305, 5-(3,4-dimethoxyphenyl)-4-[(4-ethyl-1H-indol-5-yl)amino]nicotinonitrile], the IC50 falls from 0.58 µM to 0.06 µM (9.7-fold).

`COc1ccc(-c2cncc(C#N)c2Nc2ccc3[nH]ccc3c2)cc1OCCNCCc1ccncc1` [Compound 253, 4-(1H-indol-5-ylamino)-5-(4-methoxy-3-{2-[(2-pyridin-4-ylethyl)amino]ethoxy}phenyl)nicotinonitrile] and `COc1ccc(-c2cncc(C#N)c2Nc2cccc3[nH]ccc23)cc1OCCCl` [Compound 303, 5-[3-(2-chloroethoxy)-4-methoxyphenyl]-4-(1H-indol-4-ylamino)nicotinonitrile] are within 1.5-fold of each other in IC50: 0.05 µM for the first, 0.04 µM for the second.

Compared with `Cc1cc2[nH]ccc2cc1Nc1c(C#N)cncc1-c1cc2ccccc2o1` [Compound 413, 5-(1-benzofuran-2-yl)-4-[(6-methyl-1H-indol-5-yl)amino]nicotinonitrile], `CCN1CCN(Cc2ccc3oc(-c4cncc(C#N)c4Nc4ccc5[nH]ccc5c4C)cc3c2)CC1` [Compound 553, 5-{5-[(4-ethylpiperazin-1-yl)methyl]-1-benzofuran-2-yl}-4-[(4-methyl-1H-indol-5-yl)amino]nicotinonitrile] is 110-fold lower in IC50: 0.055 µM for the first, 0.00048 µM for the second.

First: Cc1c(Nc2c(C#N)cncc2-c2cccc(-c3ccc(C(=O)NCCCCO)cc3)c2)ccc2[nH]ccc12 [Compound 309, 3′-{5-cyano-4-[(4-methyl-1H-indol-5-yl)amino]pyridin-3-yl}-N-(4-hydroxybutyl)biphenyl-4-carboxamide]
Second: CN(C)c1cccc(-c2cncc(C#N)c2Nc2cccc3[nH]ccc23)c1 [Compound 254, 5-[3-(dimethylamino)phenyl]-4-(1H-indol-4-ylamino)nicotinonitrile]
The IC50 of the first is 1.5-fold higher: 0.12 µM for the first, 0.08 µM for the second. The second is the more potent here.

`Cc1c(Nc2c(C#N)cncc2-c2cnc(CN3CCN(C)CC3)n2C)ccc2[nH]ccc12` [Compound 539, 4-[(4-methyl-1H-indol-5-yl)amino]-5-{1-methyl-2-[(4-methylpiperazin-1-yl)methyl]-1H-imidazol-5-yl}nicotinonitrile] was tested, and the IC50 was 0.036 µM.
